Assay results taken from paper PMC12334608 (Nature Communications, 2025).
Changes are numbered by the printed parent chain. pKd: −log10 of the molar value.

Columns and labels:
ACOX-1.1(R343Q) = molecular target: T1, ACOX-1.1(R343Q) (Caenorhabditis elegans, UniProt O62140, R343Q); assay: Enzyme-coupled kinetic assay, ACOX-1.1; assay type: biochemical, C. elegans; conditions: varying ATP
T1 sequence (O62140 1-674 R343Q): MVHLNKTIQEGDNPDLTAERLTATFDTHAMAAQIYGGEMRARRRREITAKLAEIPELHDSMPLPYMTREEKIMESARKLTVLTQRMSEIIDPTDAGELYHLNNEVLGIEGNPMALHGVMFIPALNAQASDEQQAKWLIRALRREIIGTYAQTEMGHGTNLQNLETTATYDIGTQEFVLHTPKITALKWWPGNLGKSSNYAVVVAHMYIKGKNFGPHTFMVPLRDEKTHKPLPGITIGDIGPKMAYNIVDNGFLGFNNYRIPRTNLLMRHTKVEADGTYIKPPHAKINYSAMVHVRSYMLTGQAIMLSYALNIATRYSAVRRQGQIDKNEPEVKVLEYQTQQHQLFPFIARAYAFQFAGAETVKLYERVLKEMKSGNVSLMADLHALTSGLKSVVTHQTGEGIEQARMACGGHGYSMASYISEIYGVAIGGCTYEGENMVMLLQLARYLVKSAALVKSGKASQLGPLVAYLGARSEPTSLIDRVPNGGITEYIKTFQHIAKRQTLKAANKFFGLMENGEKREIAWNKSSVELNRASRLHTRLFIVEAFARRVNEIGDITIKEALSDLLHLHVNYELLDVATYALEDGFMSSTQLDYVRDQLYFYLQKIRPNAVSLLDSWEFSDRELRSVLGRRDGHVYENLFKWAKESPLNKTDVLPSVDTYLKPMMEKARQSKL

ACOX-1.1(R295Q) = molecular target: T2, ACOX-1.1(R295Q) (Caenorhabditis elegans, UniProt O62140, R295Q); assay: Enzyme-coupled kinetic assay, ACOX-1.1; assay type: biochemical, C. elegans
T2 sequence (O62140 1-674 R295Q): T1 sequence (O62140 1-674 R343Q) with R295Q, Q343R

ACOX-1.1(R295A) = molecular target: T3, ACOX-1.1(R295A) (Caenorhabditis elegans, UniProt O62140, R295A); assay: Enzyme-coupled kinetic assay, ACOX-1.1; assay type: biochemical, C. elegans
T3 sequence (O62140 1-674 R295A): T1 sequence (O62140 1-674 R343Q) with R295A, Q343R

ACOX-1.1 = molecular target: T4, ACOX-1.1 (Caenorhabditis elegans, UniProt O62140); assay: Analysis of enzyme activity; assay type: biochemical, C. elegans; conditions: 10 μM FAD, 350 μM ATP
T4 sequence (O62140 1-674): T1 sequence (O62140 1-674 R343Q) with Q343R

[1] = molecular target: aspartate transcarbamoylase; conditions: read-out: KD of the high-affinity ATP site; ATP-activated aspartate transcarbamoylase; cited from earlier work

response of enzyme activity to ATP (ACOX-1.1(R295Q)): do not respond to ATP
response of enzyme activity to ATP (ACOX-1.1(R295A)): do not respond to ATP
effect on rate of product formation (HPLC) (ACOX-1.1): increases the rate of product formation
SMILES: Nc1ncnc2c1ncn2[C@@H]1O[C@H](COP(=O)(O)OP(=O)(O)OP(=O)(O)O)[C@@H](O)[C@H]1O [ATP]
influence of ATP on the activity of the enzyme (ACOX-1.1(R343Q)): no influence on the activity of the enzyme
pKd [1]: 3.70 to 4.00
